Measured values published in US8821888B2, “Xylogone ganodermophthora strain with antifungal activity, and composition including same for preventing plant diseases” (The Director of Chungcheongbuk-Do Agricultural Research and …, priority 2013, dated 2014).

System: Sphaerotheca fusca
Test: Control effect of sprayed extract on leaves of cucurbitaceous crops infected with Sphaerotheca fusca
Type: in vivo
Details: 4,000 fold dilution, 7 days after spray
Description: The control effects of the extract of the cultured H55 strain prepared in Example 1 were measured. […] The extract was sprayed once at the initial stage of the development of Sphaerotheca fusca, and at 7 days after the spray of the extract, the control effect of the extract for each crop was measured.

Compound: CCCOC/C(=N\c1ccc(Cl)cc1C(F)(F)F)n1ccnc1 [Triflumizole]
- Control value (Cucumbers): 83.3
- Diseased leaf area (Cucumbers): 10%
- Control value (Melons): 42.9
- Diseased leaf area (Melons): 40%
- Control value (Oriental melons): 80.0
- Diseased leaf area (Oriental melons): 10%
- Control value (Pumpkins): 62.5
- Diseased leaf area (Pumpkins): 30%
